In patent publication US8003602B2 (priority 2006, dated 2011):
In brackets after ≈: the same amount, converted by molar mass.

Key:
Test in all cases: MIC, Macro-broth dilution method
B. megaterium FH 1127 = format: cell-based, Bacillus megaterium
Text: (§1) The in-vitro potency was established by minimum inhibitory concentration (MIC) determinations of the compound PM181104 against bacterial strains, by using the Macro-broth dilution method as per National Committee for Clinical Laboratory Standards (2000) guidelines [Journal of Anti-microbial Chemotherapy, 2002, 50, 125-128 (Cross Reference 8: Methods for Dilution Antimicrobial Susceptibility Tests for Bacteria that Grow Aerobically-Fifth Edition: Approved Standard M7-A5. NCCLS, Wayne, Pa., USA)]. Unless stated otherwise, Mueller-Hinton broth was used as nutrient medium for the assay. Linezolid (manufactured by Glenmark Pharma Ltd; Batch no: K2005028) was used as known standard in all in-vitro experiments. For preparation of the stock solution the compound PM181104 was dissolved in chloroform (5% of the total required volume) and diluted using methanol (95% of the total required volume).

S. aureus Bom-MRSA2 = format: cell-based, Staphylococcus aureus
Text: as §1

S. aureus KEM-MRSA22 = format: cell-based, Staphylococcus aureus
Text: as §1

S. aureus wien13 = format: cell-based, Staphylococcus aureus
Text: as §1

S. aureus KEM-MRSA7 = format: cell-based, Staphylococcus aureus
Text: as §1

S. aureus (20666) = format: cell-based, Staphylococcus aureus
Text: as §1

S. aureus KEM-MRSA1 = format: cell-based, Staphylococcus aureus
Text: as §1

S. aureus KEM-MRSA19 = format: cell-based, Staphylococcus aureus
Text: as §1

S. aureus KEM-MRSA11 = format: cell-based, Staphylococcus aureus
Text: as §1

S. aureus Rehaja-MRSA1 = format: cell-based, Staphylococcus aureus
Text: as §1

S. aureus ATCC29213 = format: cell-based, Staphylococcus aureus
Text: as §1

S. aureus KEM-MRSA2 = format: cell-based, Staphylococcus aureus
Text: as §1

C=C(NC(=O)C(=C)NC(=O)C1CCCN1C(=O)c1nc(-c2ccc(-c3nc(C(=O)NC(=C)C(=O)NC(C)C(N)=O)cs3)c(-c3csc(C4Cc5nc(cs5)C(=O)NC(Cc5ccccc5)C5=NC(CS5)C(=O)NC(Cc5ccc(O)cc5)C(=O)N5CCCC5c5nc(cs5)C(=O)N4)n3)n2)oc1C)C(N)=O (stereo not drawn) [PM181104]
MIC (B. megaterium FH 1127): 0.00781 µg/mL (≈ 0.00515 µM) | MIC (S. aureus Bom-MRSA2): 0.0625 µg/mL (≈ 0.0412 µM) | MIC (S. aureus KEM-MRSA22): 0.00781 µg/mL (≈ 0.00515 µM) | MIC (S. aureus wien13): 0.0625 µg/mL (≈ 0.0412 µM) | MIC (S. aureus KEM-MRSA7): 0.01563 µg/mL (≈ 0.0103 µM) | MIC (S. aureus (20666)): 0.01563 µg/mL (≈ 0.0103 µM) | MIC (S. aureus KEM-MRSA1): 0.03125 µg/mL (≈ 0.0206 µM) | MIC (S. aureus KEM-MRSA19): 0.00781 µg/mL (≈ 0.00515 µM) | MIC (S. aureus KEM-MRSA11): 0.0625 µg/mL (≈ 0.0412 µM) | MIC (S. aureus Rehaja-MRSA1): 0.03125 µg/mL (≈ 0.0206 µM) | MIC (S. aureus ATCC29213): 0.03125 µg/mL (≈ 0.0206 µM) | MIC (S. aureus KEM-MRSA2): 0.03125 µg/mL (≈ 0.0206 µM)
